Values joined by “and” are separate entries in the source; they are usually repeats but may differ in a detail not shown here. Equal entries are not always repeated.
Molecular target: human FPR2 (Homo sapiens (Human), UniProt P25090)
Assay: FPR2 cyclic adenosine monophosphate (cAMP) assay
Assay type: cell-based
Conditions: CHO cells overexpressing human FPR2; cAMP assay; read-out: hFPR2 agonist activity EC50 (hFPR2 Assay)
Method: FPR2 and FPR1 Cyclic Adenosine Monophosphate (cAMP) Assays. A mixture of forskolin (5 μM final for FPR2 or 10 μM final for FPR1) and IBMX (200 μM final) were added to 384-well Proxiplates (Perkin-Elmer) pre-dotted with test compounds in DMSO (1% final) at final concentrations in the range of 1.7 nM to 100 μM. Chinese Hamster Ovary cells (CHO) overexpressing human FPR1 or human FPR2 receptors were cultured in F-12 (Ham's) medium supplemented with 10% qualified FBS, 250 μg/ml zeocin and 300 μg/ml hygromycin (Life Technologies). Reactions were initiated by adding 2,000 human FPR2 cells per well or 4,000 human FPR1 cells per well in Dulbecco's PBS (with calcium and magnesium) (Life Technologies) supplemented with 0.1% BSA (Perkin-Elmer). The reaction mixtures were incubated for 30 min at room temperature. The level of intracellular cAMP was determined using the HTRF HiRange cAMP assay reagent kit (Cisbio) according to manufacturer's instruction. Solutions of cryptate conjugated anti-cAMP and d2 flurorophore-labelled cAMP were made in a supplied lysis buffer separately. Upon completion of the reaction, the cells were lysed with equal volume of the d2-cAMP solution and anti-cAMP solution. After a 1-h room temperature incubation, time-resolved fluorescence intensity was measured using the Envision (Perkin-Elmer) at 400 nm excitation and dual emission at 590 nm and 665 nm. A calibration curve was constructed with an external cAMP standard at concentrations ranging from 1 μM to 0.1 pM by plotting the fluorescent intensity ratio from 665 nm emission to the intensity from the 590 nm emission against cAMP concentrations. The potency and activity of a compound to inhibit cAMP production was then determined by fitting to a 4-parametric logistic equation from a plot of cAMP level versus compound concentrations.

Chain of human FPR2 (P25090 whole entry): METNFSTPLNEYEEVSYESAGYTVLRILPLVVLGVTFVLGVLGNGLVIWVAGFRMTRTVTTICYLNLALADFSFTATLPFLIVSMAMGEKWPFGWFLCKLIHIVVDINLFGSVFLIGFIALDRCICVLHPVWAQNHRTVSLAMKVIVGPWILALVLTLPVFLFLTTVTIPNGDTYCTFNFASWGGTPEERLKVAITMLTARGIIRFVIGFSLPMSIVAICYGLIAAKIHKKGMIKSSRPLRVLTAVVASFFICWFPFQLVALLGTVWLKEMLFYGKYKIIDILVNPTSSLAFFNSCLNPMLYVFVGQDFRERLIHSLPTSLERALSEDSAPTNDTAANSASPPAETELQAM

SMILES	EC50
O=C(Nc1ccc(C(F)(F)F)cc1)N[C@@H]1CCCN(c2ccc(N3CCC(F)(F)C3)cc2)C1=O [Example 68]	≤ 10 nM
CS(=O)(=O)C1CCN(c2ccc(N3CCC[C@@H](NC(=O)Nc4ccc(Cl)cc4)C3=O)c(F)c2F)C1 (some centres unmarked) [Example 87]	≤ 10 nM
O=C(Nc1ccc(Cl)cc1F)N[C@@H]1CCCN(c2ccc(N3CC[C@@H](F)C3)nc2)C1=O [Example 105]	≤ 10 nM
O=C(Nc1ccc(C(F)(F)F)cc1)N[C@@H]1CCCN(c2ccc(N3CCCC(F)C3)nc2)C1=O (some centres unmarked) [Example 57]	10 to 100 nM
O=C(Nc1ccc(Cl)cc1)N[C@@H]1CCCN(c2ccc(N3CCC4(CCCO4)CC3)cc2)C1=O [Example 101]	≤ 10 nM
C[C@@H]1COCCN1c1ccc(N2CCC[C@@H](NC(=O)Nc3ccc(C(F)(F)F)cc3)C2=O)cc1 [Example 35]	≤ 10 nM
O=C(Nc1ccc(C(F)(F)F)nc1)N[C@@H]1CCCN(c2ccc(N3C[C@H]4CC[C@@H](C3)O4)cc2)C1=O [Example 47]	100 to 1000 nM
O=C(Nc1ccc(C(F)(F)F)cc1)N[C@H]1CCCN(c2ccc(N3CCCC(O)C3)cc2)C1=O (some centres unmarked) [Example 32]	100 to 1000 nM
COC1CCN(c2ccc(N3CCC[C@@H](NC(=O)Nc4ccc(Cl)cc4)C3=O)cc2)C1 (some centres unmarked) [Example 76]	≤ 10 nM
O=C(Nc1ccc(Cl)cc1)N[C@@H]1CCCN(c2ccc(N3CCC4(CC4)C3)cc2)C1=O [Example 96]	≤ 10 nM
COCC1COCCN1c1ccc(N2CCC[C@@H](NC(=O)Nc3ccc(C(F)(F)F)cc3)C2=O)cc1 (some centres unmarked) [Example 21]	≤ 10 nM
O=C(Nc1ccc(Cl)cc1)N[C@@H]1CCCN(c2ccc(N3CCC(O)(C(F)(F)F)CC3)cc2)C1=O [Example 100]	≤ 10 nM
O=C(Nc1cnc(C(F)(F)F)cn1)N[C@@H]1CCCN(c2ccc(N3CCC(F)(F)C3)cc2)C1=O [Example 67]	≤ 10 nM and 10 to 100 nM
O=C(Nc1ccc(C(F)(F)F)cn1)N[C@@H]1CCCN(c2ccc(N3CC[C@@H](O)C3)cc2)C1=O [Example 28]	100 to 1000 nM
CS(=O)(=O)C1CCN(c2ccc(N3CCC[C@@H](NC(=O)Nc4ccc(Cl)cc4F)C3=O)c(F)c2F)C1 (some centres unmarked) [Example 89]	≤ 10 nM
O=C(Nc1ccc(C(F)(F)F)cn1)N[C@@H]1CCCN(c2ccc(N3CCCCC3=O)cc2)C1=O [Example 49]	100 to 1000 nM
O=C(Nc1ccc(C(F)(F)F)cc1)N[C@@H]1CCCN(c2ccc(N3CCCCC3=O)cc2F)C1=O [Example 52]	10 to 100 nM
COC[C@@H]1CCCN1c1ccc(N2CCC[C@@H](NC(=O)Nc3ccc(C(F)(F)F)cn3)C2=O)cc1 [Example 24]	100 to 1000 nM
O=C(Nc1ccc(C(F)(F)F)cc1)N[C@@H]1CCCN(c2ccc(N3CCN(CCO)CC3)nc2)C1=O [Example 61]	10 to 100 nM
CC(C)N1CCN(c2ccc(N3CCC[C@@H](NC(=O)Nc4ccc(C(F)(F)F)cc4)C3=O)cc2)CC1 [Example 33]	10 to 100 nM
CC(=O)N1CCN(c2ccc(N3CCC[C@@H](NC(=O)Nc4ccc(C(F)(F)F)cc4)C3=O)cc2)CC1 [Example 29]	100 to 1000 nM
COCC1CCCCN1c1ccc(N2CCC[C@@H](NC(=O)Nc3ccc(C(F)(F)F)nc3)C2=O)cc1 (some centres unmarked) [Example 16]	10 to 100 nM
CS(=O)(=O)C1CCN(c2ccc(N3CCC[C@@H](NC(=O)Nc4ccc(C(F)(F)F)cc4)C3=O)cc2)C1 (some centres unmarked) [Example 108]	≤ 10 nM
O=C(Nc1ccc(C(F)(F)F)cn1)N[C@@H]1CCCN(c2ccc(N3CCCCC3=O)cc2F)C1=O [Example 51]	100 to 1000 nM
O=C(Nc1ccc(C(F)(F)F)cc1)N[C@@H]1CCCN(c2ccc(N3CCCC(CO)C3)nc2)C1=O (some centres unmarked) [Example 64]	100 to 1000 nM
CN(C)C(=O)C1CCN(c2ccc(N3CCC[C@@H](NC(=O)Nc4ccc(Cl)cc4F)C3=O)cc2)C1 (some centres unmarked) [Example 86]	≤ 10 nM
O=C(Nc1ccc(Cl)cc1)N[C@@H]1CCCN(c2ccc(N3CCC(C4CC4)C3)cc2)C1=O (some centres unmarked) [Example 97]	≤ 10 nM
CN(CC(F)(F)F)C1CCN(c2ccc(N3CCC[C@@H](NC(=O)Nc4ccc(Cl)cc4)C3=O)c(F)c2F)C1 (some centres unmarked) [Example 85]	≤ 10 nM
CN1CCN(c2ccc(N3CCC[C@@H](NC(=O)Nc4ccc(C(F)(F)F)cc4)C3=O)cc2)CC1 [Example 44]	10 to 100 nM

— patent US11008301B2, “Piperidinone formyl peptide 2 receptor agonists” (BRISTOL-MYERS SQUIBB COMPANY, priority 2017, dated 2021)
